In PubChem BioAssay AID200 (DTP/NCI, 2004):
Values joined by “and” are separate entries in the source; they are usually repeats but may differ in a detail not shown here. Equal values may be shown once. Inconclusive results and toxic doses are left out. How the source made its calls: active means survival T/C of 150% or more; inactive means T/C below 125% in these data.

Test system: B6C3F1 mice, B16 melanoma ip, median survival T/C
Assay: NCI In Vivo Anticancer Drug Screen. Data for tumor model B16 Melanoma (intraperitoneal) in B6C3F1 mice
Conditions: endpoint: median survival time, schedule: Q01DX009 (ip), vehicle: Klucel (hydroxypropylcellulose) (HPC), higher = longer survival
Outline: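 Transplantable tumor in mice; treated vs vehicle control groups; survival or tumor size measured; value = T/C ratio.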

Measured: T/C

CCCCCC(=O)O[C@]1(C(C)=O)CC[C@H]2[C@@H]3CCC4=CC(=O)CC[C@]4(C)[C@H]3CC[C@@]21C
inactive: dose: 12.5 mg/kg/injection 97 % of control and 101 % of control | dose: 25.0 mg/kg/injection 100 % of control and 104 % of control | dose: 50.0 mg/kg/injection 96 % of control and 98 % of control | dose: 100.0 mg/kg/injection 99 % of control and 100 % of control | dose: 200.0 mg/kg/injection 97 % of control and 100 % of control | dose: 400.0 mg/kg/injection 91 % of control and 97 % of control
